Test results taken from article PMC10620772, “Design, synthesis, and biological evaluation of new pyrimidine-5-carbonitrile derivatives as novel anti-cancer, dual EGFR^WT/COX-2 inhibitors with docking studies” (RSC Advances, 2023).

What was measured:
Assay type in all cases: cell-based, human
[1] = test system: CCRF-CEM; test: NCI60 antitumor screening; settings: 10 μM one-dose
[2] = test system: HL-60(TB); test: NCI60 antitumor screening; settings: 10 μM one-dose
[3] = test system: K-562; test: NCI60 antitumor screening; settings: 10 μM one-dose
[4] = test system: MOLT-4; test: NCI60 antitumor screening; settings: 10 μM one-dose
[5] = test system: RPMI-8226; test: NCI60 antitumor screening; settings: 10 μM one-dose
[6] = test system: SR; test: NCI60 antitumor screening; settings: 10 μM one-dose
[7] = test system: A549/ATCC; test: NCI60 antitumor screening; settings: 10 μM one-dose
[8] = test system: EKVX; test: NCI60 antitumor screening; settings: 10 μM one-dose
[9] = test system: HOP-62; test: NCI60 antitumor screening; settings: 10 μM one-dose
[10] = test system: HOP-92; test: NCI60 antitumor screening; settings: 10 μM one-dose
[11] = test system: NCI-H226; test: NCI60 antitumor screening; settings: 10 μM one-dose
[12] = test system: NCI-H23; test: NCI60 antitumor screening; settings: 10 μM one-dose
[13] = test system: NCI-H322M; test: NCI60 antitumor screening; settings: 10 μM one-dose
[14] = test system: NCI-H460; test: NCI60 antitumor screening; settings: 10 μM one-dose
[15] = test system: NCI-H522; test: NCI60 antitumor screening; settings: 10 μM one-dose
[16] = test system: COLO 205; test: NCI60 antitumor screening; settings: 10 μM one-dose
[17] = test system: HCC-2998; test: NCI60 antitumor screening; settings: 10 μM one-dose
[18] = test system: HCT-116; test: NCI60 antitumor screening; settings: 10 μM one-dose
[19] = test system: HCT-15; test: NCI60 antitumor screening; settings: 10 μM one-dose
[20] = test system: HT29; test: NCI60 antitumor screening; settings: 10 μM one-dose
[21] = test system: KM12; test: NCI60 antitumor screening; settings: 10 μM one-dose
[22] = test system: SW-620; test: NCI60 antitumor screening; settings: 10 μM one-dose
[23] = test system: SF-268; test: NCI60 antitumor screening; settings: 10 μM one-dose
[24] = test system: SF-295; test: NCI60 antitumor screening; settings: 10 μM one-dose
[25] = test system: SF-539; test: NCI60 antitumor screening; settings: 10 μM one-dose
[26] = test system: SNB-19; test: NCI60 antitumor screening; settings: 10 μM one-dose
[27] = test system: SNB-75; test: NCI60 antitumor screening; settings: 10 μM one-dose
[28] = test system: U251; test: NCI60 antitumor screening; settings: 10 μM one-dose
[29] = test system: LOX IMVI; test: NCI60 antitumor screening; settings: 10 μM one-dose
[30] = test system: MALME-3M; test: NCI60 antitumor screening; settings: 10 μM one-dose
[31] = test system: M14; test: NCI60 antitumor screening; settings: 10 μM one-dose
[32] = test system: MDA-MB-435; test: NCI60 antitumor screening; settings: 10 μM one-dose
[33] = test system: SK-MEL-2; test: NCI60 antitumor screening; settings: 10 μM one-dose
[34] = test system: SK-MEL-28; test: NCI60 antitumor screening; settings: 10 μM one-dose
[35] = test system: SK-MEL-5; test: NCI60 antitumor screening; settings: 10 μM one-dose
[36] = test system: UACC-257; test: NCI60 antitumor screening; settings: 10 μM one-dose
[37] = test system: UACC-62; test: NCI60 antitumor screening; settings: 10 μM one-dose
[38] = test system: IGROV1; test: NCI60 antitumor screening; settings: 10 μM one-dose
[39] = test system: OVCAR-3; test: NCI60 antitumor screening; settings: 10 μM one-dose
[40] = test system: OVCAR-4; test: NCI60 antitumor screening; settings: 10 μM one-dose
[41] = test system: OVCAR-5; test: NCI60 antitumor screening; settings: 10 μM one-dose
[42] = test system: OVCAR-8; test: NCI60 antitumor screening; settings: 10 μM one-dose
[43] = test system: NCI/ADR-RES; test: NCI60 antitumor screening; settings: 10 μM one-dose
[44] = test system: SK-OV-3; test: NCI60 antitumor screening; settings: 10 μM one-dose
[45] = test system: 786–0; test: NCI60 antitumor screening; settings: 10 μM one-dose
[46] = test system: A498; test: NCI60 antitumor screening; settings: 10 μM one-dose
[47] = test system: ACHN; test: NCI60 antitumor screening; settings: 10 μM one-dose
[48] = test system: CAKI-1; test: NCI60 antitumor screening; settings: 10 μM one-dose
[49] = test system: RXF 393; test: NCI60 antitumor screening; settings: 10 μM one-dose
[50] = test system: SN12C; test: NCI60 antitumor screening; settings: 10 μM one-dose
[51] = test system: TK-10; test: NCI60 antitumor screening; settings: 10 μM one-dose
[52] = test system: UO-31; test: NCI60 antitumor screening; settings: 10 μM one-dose
[53] = test system: PC-3; test: NCI60 antitumor screening; settings: 10 μM one-dose
[54] = test system: DU-145; test: NCI60 antitumor screening; settings: 10 μM one-dose
[55] = test system: MCF7; test: NCI60 antitumor screening; settings: 10 μM one-dose
[56] = test system: MDA-MB-231/ATCC; test: NCI60 antitumor screening; settings: 10 μM one-dose
[57] = test system: HS 578T; test: NCI60 antitumor screening; settings: 10 μM one-dose
[58] = test system: BT-549; test: NCI60 antitumor screening; settings: 10 μM one-dose
[59] = test system: T-47D; test: NCI60 antitumor screening; settings: 10 μM one-dose
[60] = test system: MDA-MB-468; test: NCI60 antitumor screening; settings: 10 μM one-dose
[61] = test system: NCI60 cell lines panel; test: NCI60 antitumor screening, full panel; settings: 10 μM one-dose, mean over NCI60
Experimental: The National Cancer Institute (NCI), Bethesda, Maryland, United States, selected all of the novel synthesized compounds (2b–d, 3a–d and 4a–p) for in vitro antitumor screening at a single concentration of 10 μM toward the NCI60 cell lines panel covering leukaemia, non-small cell lungs, colon, central nervous system (CNS), melanoma, ovarian, renal, prostate, and breast cancer cells.[32–35] The data were reported as a mean graph of the percent growth of the treated cell lines and expressed as percentage growth inhibition (GI%) in Table 1 and ESI 1.
(2) The molar concentration of the compound responsible for total growth inhibition, also known as total growth inhibition (TGI).
Regarding subpanel selectivity toward certain cancer type, the method of determining a compound's selectivity index is to divide the full panel MG-MID (μM) value by each single subpanel. Values above six indicate high selectivity against the subpanel; moderate selectivity is denoted by values between three and six. Conversely, compounds are termed nonselective if their selectivity is less than three.[30,37]

SMILES: N#Cc1c(Cl)nc(SCc2ccc(F)cc2)nc1-c1ccc(F)cc1 [3b, 4-Chloro-2-((4-fluorobenzyl)thio)-6-(4-fluorophenyl) pyrimidine-5-carbonitrile]
- GI% [1]: 13.30%
- GI% [2]: 49.83%
- GI% [3]: 30.20%
- GI% [4]: 19.35%
- GI% [5]: — (GI% < 10)
- GI% [6]: — (GI% < 10)
- GI% [7]: — (GI% < 10)
- GI% [8]: 10.91%
- GI% [9]: — (GI% < 10)
- GI% [10]: 25.21%
- GI% [11]: 28.68%
- GI% [12]: — (GI% < 10)
- GI% [13]: — (GI% < 10)
- GI% [14]: — (GI% < 10)
- GI% [15]: 25.38%
- GI% [16]: — (GI% < 10)
- GI% [17]: — (GI% < 10)
- GI% [18]: 18.51%
- GI% [19]: 13.00%
- GI% [20]: 13.44%
- GI% [21]: — (GI% < 10)
- GI% [22]: — (GI% < 10)
- GI% [23]: — (GI% < 10)
- GI% [24]: 10.01%
- GI% [25]: — (GI% < 10)
- GI% [26]: — (GI% < 10)
- GI% [27]: — (GI% < 10)
- GI% [28]: — (GI% < 10)
- GI% [29]: — (GI% < 10)
- GI% [30]: — (GI% < 10)
- GI% [31]: — (GI% < 10)
- GI% [32]: — (GI% < 10)
- GI% [33]: — (GI% < 10)
- GI% [34]: — (GI% < 10)
- GI% [35]: 13.82%
- GI% [36]: — (GI% < 10)
- GI% [37]: 13.95%
- GI% [38]: — (GI% < 10)
- GI% [39]: — (GI% < 10)
- GI% [40]: — (GI% < 10)
- GI% [41]: — (GI% < 10)
- GI% [42]: 10.81%
- GI% [43]: 13.45%
- GI% [44]: — (GI% < 10)
- GI% [45]: — (GI% < 10)
- GI% [46]: — (GI% < 10)
- GI% [47]: — (GI% < 10)
- GI% [48]: — (GI% < 10)
- GI% [49]: 10.29%
- GI% [50]: 19.06%
- GI% [51]: — (GI% < 10)
- GI% [52]: 12.89%
- GI% [53]: — (GI% < 10)
- GI% [54]: — (GI% < 10)
- GI% [55]: 17.40%
- GI% [56]: — (GI% < 10)
- GI% [57]: — (GI% < 10)
- GI% [58]: — (GI% < 10)
- GI% [59]: 33.18%
- GI% [60]: — (GI% < 10)
- Mean GI% [61]: — (GI% < 10)
